# Experimental data published in ChEMBL document CHEMBL1201861, “Genomics of Drug Sensitity in Cancer screening data, Wellcome Trust Sanger Institute”.
# pIC50: −log10 of the molar value.
# Columns and labels:
# Assay in all cases: cells
# KP-4 = assay type: functional, cell-based, Homo sapiens; conditions: Homo sapiens, KP-4;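 note: human KP-4 cells, with growth inhibition read out through a cell viability assay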
# Description: SANGER: Inhibition of human KP-4 cell growth in a cell viability assay.
# SHP77 = assay type: functional, cell-based, Homo sapiens, SHP-77; conditions: Homo sapiens, SHP77;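 note: growth inhibition of human SHP-77 cells measured by a cell viability assay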
# Description: SANGER: Inhibition of human SHP-77 cell growth in a cell viability assay.
# HEL = assay type: functional, cell-based, Homo sapiens; conditions: Homo sapiens, HEL;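 note: growth inhibition of HEL cells, read out with a cell viability assay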
# Description: SANGER: Inhibition of human HEL cell growth in a cell viability assay.
# HMV-2 cell line = assay type: functional, cell-based, Homo sapiens; conditions: Homo sapiens, HMV-2;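 note: growth inhibition of HMV-II cells, read out with a cell viability assay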
# Description: SANGER: Inhibition of human HMV-II cell growth in a cell viability assay.
# HOS = assay type: functional, cell-based, Homo sapiens; conditions: Homo sapiens, HOS;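 note: growth inhibition of human HOS cells, read out with a cell viability assay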
# Description: SANGER: Inhibition of human HOS cell growth in a cell viability assay.
# KYSE-270 = assay type: functional, cell-based, Homo sapiens; conditions: Homo sapiens, KYSE-270;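 note: cell growth inhibition measured with a viability assay in the human KYSE-270 line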
# Description: SANGER: Inhibition of human KYSE-270 cell growth in a cell viability assay.
# HCE-4 = assay type: functional, cell-based, Homo sapiens; conditions: Homo sapiens, HCE-4;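 note: cell viability assay measuring inhibition of growth in the human HCE-4 cell line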
# Description: SANGER: Inhibition of human HCE-4 cell growth in a cell viability assay.
# NCI-H441 = assay type: functional, cell-based; conditions: Homo sapiens;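 note: growth inhibition of NCI-H441 cells, read out with a cell viability assay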
# Description: SANGER: Inhibition of human NCI-H441 cell growth in a cell viability assay.
# SK-MEL-2 = assay type: functional, cell-based, Homo sapiens; conditions: Homo sapiens, SK-MEL-2;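 note: growth inhibition of human SK-MEL-2 cells measured with a cell viability assay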
# Description: SANGER: Inhibition of human SK-MEL-2 cell growth in a cell viability assay.
# KINGS-1 = assay type: functional, cell-based, Homo sapiens; conditions: Homo sapiens, KINGS-1;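 note: cell viability assay measuring suppression of KINGS-1 cell growth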
# Description: SANGER: Inhibition of human KINGS-1 cell growth in a cell viability assay.
# Calu-3 = assay type: functional, cell-based, Homo sapiens; conditions: Homo sapiens, Calu-3;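 note: growth inhibition of human Calu-3 cells, determined with a cell viability assay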
# Description: SANGER: Inhibition of human Calu-3 cell growth in a cell viability assay.
# no-11 = assay type: functional, cell-based, Homo sapiens; conditions: Homo sapiens;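 note: growth inhibition of human NO-11 cells, read out with a cell viability assay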
# Description: SANGER: Inhibition of human no-11 cell growth in a cell viability assay.
# NB12 = assay type: functional, cell-based, Homo sapiens; conditions: Homo sapiens, NB12;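 note: growth inhibition of human NB12 cells, read out by a cell viability assay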
# Description: SANGER: Inhibition of human NB12 cell growth in a cell viability assay.
# GR-ST = assay type: functional, cell-based; conditions: Homo sapiens
# Description: SANGER: Inhibition of human GR-ST cell growth in a cell viability assay.
# GB-1 = assay type: functional, cell-based, Homo sapiens; conditions: Homo sapiens, GB-1;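 note: growth of GB-1 cells judged by a viability assay, IC50 marks the concentration inhibiting growth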
# Description: SANGER: Inhibition of human GB-1 cell growth in a cell viability assay.
# NCI-H2052 = assay type: functional, cell-based, Homo sapiens; conditions: Homo sapiens, NCI-H2052;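 note: growth inhibition of NCI-H2052 cells, read out with a cell viability assay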
# Description: SANGER: Inhibition of human NCI-H2052 cell growth in a cell viability assay.
# T-24 = assay type: functional, cell-based, Homo sapiens; conditions: Homo sapiens, T-24;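 note: growth inhibition of T-24 cells, read out with a cell viability assay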
# Description: SANGER: Inhibition of human T-24 cell growth in a cell viability assay.
# SK-PN-DW = assay type: functional, cell-based; conditions: Homo sapiens;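 note: growth inhibition measured with a viability assay on these cells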
# Description: SANGER: Inhibition of human SK-PN-DW cell growth in a cell viability assay.
# CTB-1 = assay type: functional, cell-based; conditions: Homo sapiens
# Description: SANGER: Inhibition of human CTB-1 cell growth in a cell viability assay.
# ACN = assay type: functional, cell-based, Homo sapiens; conditions: Homo sapiens, ACN;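 note: growth inhibition of the human ACN cell line, read out via cell viability testing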
# Description: SANGER: Inhibition of human ACN cell growth in a cell viability assay.
# SNU-5 = assay type: functional, cell-based; conditions: Homo sapiens;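 note: cell viability readout used to measure growth inhibition in human NCI-SNU-5 cells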
# Description: SANGER: Inhibition of human NCI-SNU-5 cell growth in a cell viability assay.
# COLO-792 = assay type: functional, cell-based, Homo sapiens; conditions: Homo sapiens, COLO-792
# Description: SANGER: Inhibition of human COLO-792 cell growth in a cell viability assay.
# MKN-7 = assay type: functional, cell-based, Homo sapiens; conditions: Homo sapiens, MKN-7;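 note: growth inhibition of MKN-7 cells, read out with a cell viability assay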
# Description: SANGER: Inhibition of human MKN7 cell growth in a cell viability assay.
# SK-HEP1 = assay type: functional, cell-based, Homo sapiens, SK-HEP-1; conditions: Homo sapiens, SK-HEP1;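 note: cell viability readout used to quantify reduction in proliferation of human SK-HEP-1 cells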
# Description: SANGER: Inhibition of human SK-HEP-1 cell growth in a cell viability assay.
# NCI-H2228 = assay type: functional, cell-based, Homo sapiens; conditions: Homo sapiens, NCI-H2228;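 note: growth inhibition of human NCI-H2228 cells, read out by a cell viability assay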
# Description: SANGER: Inhibition of human NCI-H2228 cell growth in a cell viability assay.
# GOTO = assay type: functional, cell-based, Homo sapiens; conditions: Homo sapiens, GOTO;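 note: growth inhibition of GOTO cells, read out by a cell viability assay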
# Description: SANGER: Inhibition of human GOTO cell growth in a cell viability assay.
# NCI-H1755 = assay type: functional, cell-based, Homo sapiens; conditions: Homo sapiens, NCI-H1755;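 note: cell viability readout used to measure growth inhibition of NCI-H1755 cells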
# Description: SANGER: Inhibition of human NCI-H1755 cell growth in a cell viability assay.
# NCI-H720 = assay type: functional, cell-based; conditions: Homo sapiens;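 note: growth inhibition of human NCI-H720 cells determined by a cell viability assay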
# Description: SANGER: Inhibition of human NCI-H720 cell growth in a cell viability assay.
# S-117 = assay type: functional, cell-based, Homo sapiens; conditions: Homo sapiens, S-117
# Description: SANGER: Inhibition of human S-117 cell growth in a cell viability assay.
# MKN-1 = assay type: functional, cell-based, Homo sapiens; conditions: Homo sapiens, MKN-1;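 note: growth inhibition of human MKN1 cells, read out by a cell viability measurement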
# Description: SANGER: Inhibition of human MKN1 cell growth in a cell viability assay.
# SW1573 = assay type: functional, cell-based, Homo sapiens; conditions: Homo sapiens, SW1573;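 note: growth inhibition of SW1573 cells, read out with a cell viability assay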
# Description: SANGER: Inhibition of human SW1573 cell growth in a cell viability assay.
# ES7 = assay type: functional, cell-based, Homo sapiens; conditions: Homo sapiens, ES7;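 note: growth inhibition of cultured human ES7 cells, read out as cell viability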
# Description: SANGER: Inhibition of human ES7 cell growth in a cell viability assay.
# HL-60 = assay type: functional, cell-based; conditions: Homo sapiens;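 note: growth inhibition of human HL-60 cells, read out with a cell viability assay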
# Description: SANGER: Inhibition of human HL-60 cell growth in a cell viability assay.
# HCC1954 = assay type: functional, cell-based, Homo sapiens; conditions: Homo sapiens, HCC1954;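 note: growth inhibition of human HCC1954 cells, read out with a cell viability assay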
# Description: SANGER: Inhibition of human HCC1954 cell growth in a cell viability assay.
# BCPAP = assay type: functional, cell-based, Homo sapiens; conditions: Homo sapiens, BCPAP;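 note: growth inhibition of BCPAP cells, read out in a cell viability assay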
# Description: SANGER: Inhibition of human BCPAP cell growth in a cell viability assay.
# NCI-H1792 = assay type: functional, cell-based, Homo sapiens; conditions: Homo sapiens, NCI-H1792;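 note: growth inhibition of human NCI-H1792 cells, read out as cell viability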
# Description: SANGER: Inhibition of human NCI-H1792 cell growth in a cell viability assay.
# HCT-116 = assay type: functional, cell-based, Homo sapiens; conditions: Homo sapiens, HCT-116
# Description: SANGER: Inhibition of human HCT-116 cell growth in a cell viability assay.
# HOP-92 = assay type: functional, cell-based, Homo sapiens; conditions: Homo sapiens, HOP-92;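 note: cell viability readout, with IC50 reflecting inhibition of HOP-92 cell growth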
# Description: SANGER: Inhibition of human HOP-92 cell growth in a cell viability assay.
# A388 = assay type: functional, cell-based, Homo sapiens; conditions: Homo sapiens, A388;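 note: growth inhibition of human A388 cells, read out with a cell viability assay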
# Description: SANGER: Inhibition of human A388 cell growth in a cell viability assay.
# NCI-H2122 = assay type: functional, cell-based, Homo sapiens; conditions: Homo sapiens, NCI-H2122;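 note: growth inhibition of the cells, read out with a cell viability assay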
# Description: SANGER: Inhibition of human NCI-H2122 cell growth in a cell viability assay.
# SW982 = assay type: functional, cell-based; conditions: Homo sapiens;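 note: growth inhibition of SW982 cells, read out with a cell viability assay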
# Description: SANGER: Inhibition of human SW982 cell growth in a cell viability assay.
# TK-10 = assay type: functional, cell-based, Homo sapiens; conditions: Homo sapiens, TK-10;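 note: growth inhibition of TK-10 cells, read out in a cell viability assay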
# Description: SANGER: Inhibition of human TK10 cell growth in a cell viability assay.
# NB6 = assay type: functional, cell-based, Homo sapiens; conditions: Homo sapiens, NB6;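 note: growth inhibition of NB6 cells, read out by a cell viability assay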
# Description: SANGER: Inhibition of human NB6 cell growth in a cell viability assay.
# NCI-H1648 = assay type: functional, cell-based, Homo sapiens; conditions: Homo sapiens, NCI-H1648;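 note: cell viability assay measuring inhibition of NCI-H1648 cell growth, from the Sanger screening data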
# Description: SANGER: Inhibition of human NCI-H1648 cell growth in a cell viability assay.
# ES5 = assay type: functional, cell-based, Homo sapiens; conditions: Homo sapiens, ES5;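 note: growth inhibition of human ES5 cells, read out by a cell viability assay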
# Description: SANGER: Inhibition of human ES5 cell growth in a cell viability assay.
# NCI-H1155 = assay type: functional, cell-based; conditions: Homo sapiens;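 note: cell growth inhibition measured by a viability assay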
# Description: SANGER: Inhibition of human NCI-H1155 cell growth in a cell viability assay.
# T47D = assay type: functional, cell-based, Homo sapiens; conditions: Homo sapiens, T47D;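 note: growth inhibition of human T47D cells, measured with a cell viability assay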
# Description: SANGER: Inhibition of human T47D cell growth in a cell viability assay.
# TE-11 = assay type: functional, cell-based, Homo sapiens; conditions: Homo sapiens, TE-11;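 note: growth inhibition of human TE-11 cells, read out by a cell viability assay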
# Description: SANGER: Inhibition of human TE-11 cell growth in a cell viability assay.
# QIMR-WIL = assay type: functional, cell-based; conditions: Homo sapiens;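 note: growth inhibition of QIMR-WIL cells, read out with a cell viability assay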
# Description: SANGER: Inhibition of human QIMR-WIL cell growth in a cell viability assay.
# LU-139 = assay type: functional, cell-based; conditions: Homo sapiens
# Description: SANGER: Inhibition of human LU-139 cell growth in a cell viability assay.
# SH-4 = assay type: functional, cell-based, Homo sapiens; conditions: Homo sapiens, SH-4;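 note: growth inhibition of SH-4 cells, read out with a cell viability assay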
# Description: SANGER: Inhibition of human SH-4 cell growth in a cell viability assay.
# ESS-1 = assay type: functional, cell-based, Homo sapiens; conditions: Homo sapiens, ESS-1;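 note: growth inhibition of human ESS-1 cells, read out by a cell viability assay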
# Description: SANGER: Inhibition of human ESS-1 cell growth in a cell viability assay.
compound,measurement,setting,value
Nc1ccn([C@@H]2O[C@H](CO)[C@@H](O)[C@@H]2O)c(=O)n1 [CYTARABINE],pIC50,KP-4; read-out: IC50,6.27
same,pIC50,SHP77,< 5.70
same,pIC50,HEL,7.69
same,pIC50,HMV-2 cell line,6.91
same,pIC50,HOS,6.29
same,pIC50,KYSE-270,6.07
same,pIC50,HCE-4,6.56
same,pIC50,NCI-H441,< 5.70
same,pIC50,SK-MEL-2,< 5.70
same,pIC50,KINGS-1,< 5.70
same,pIC50,Calu-3,< 5.70
same,pIC50,no-11,< 5.70
same,pIC50,NB12,< 5.70
same,pIC50,GR-ST,6.41
same,pIC50,GB-1,< 5.70
same,pIC50,NCI-H2052,< 5.70
same,pIC50,T-24,7.10
same,pIC50,SK-PN-DW,6.38
same,pIC50,CTB-1,7.46
same,pIC50,ACN,< 5.70
same,pIC50,SNU-5,< 5.70
same,pIC50,COLO-792,5.98
same,pIC50,MKN-7,< 5.70
same,pIC50,SK-HEP1,6.25
same,pIC50,NCI-H2228,6.22
same,pIC50,GOTO,6.37
same,pIC50,NCI-H1755,< 5.70
same,pIC50,NCI-H720,< 5.70
same,pIC50,S-117,< 5.70
same,pIC50,MKN-1,5.76
same,pIC50,SW1573,< 5.70
same,pIC50,ES7,6.59
same,pIC50,HL-60,< 5.70
same,pIC50,HCC1954,< 5.70
same,pIC50,BCPAP,6.30
same,pIC50,NCI-H1792,5.85
same,pIC50,HCT-116,6.61
same,pIC50,HOP-92,6.45
same,pIC50,A388,6.13
same,pIC50,NCI-H2122,6.37
same,pIC50,SW982,7.04
same,pIC50,TK-10,5.76
same,pIC50,NB6,< 5.70
same,pIC50,NCI-H1648,< 5.70
same,pIC50,ES5,6.61
same,pIC50,NCI-H1155,6.40
same,pIC50,T47D,< 5.70
same,pIC50,TE-11,< 5.70
same,pIC50,QIMR-WIL,< 5.70
same,pIC50,LU-139,< 5.70
same,pIC50,SH-4,< 5.70
same,pIC50,ESS-1,< 5.70
CC(=O)O[C@@]12CO[C@@H]1C[C@H](O)[C@@]1(C)C(=O)[C@H](O)C3=C(C)[C@@H](OC(=O)[C@H](O)[C@@H](NC(=O)OC(C)(C)C)c4ccccc4)C[C@@](O)([C@@H](OC(=O)c4ccccc4)[C@H]21)C3(C)C [DOCETAXEL],pIC50,KP-4,8.81
same,pIC50,SHP77,< 8.00
same,pIC50,HEL,< 8.00
same,pIC50,HMV-2 cell line,< 8.00
same,pIC50,HOS,9.11
same,pIC50,KYSE-270,8.56
same,pIC50,HCE-4,8.61
same,pIC50,NCI-H441,< 8.00
same,pIC50,SK-MEL-2,8.77
same,pIC50,KINGS-1,8.93
same,pIC50,Calu-3,< 8.00
same,pIC50,no-11,< 8.00
same,pIC50,NB12,< 8.00
same,pIC50,GR-ST,< 8.00
same,pIC50,GB-1,8.29
same,pIC50,NCI-H2052,8.14
same,pIC50,T-24,< 8.00
same,pIC50,SK-PN-DW,8.71
same,pIC50,CTB-1,8.72
same,pIC50,ACN,8.19
same,pIC50,SNU-5,8.26
same,pIC50,COLO-792,< 8.00
same,pIC50,MKN-7,< 8.00
same,pIC50,SK-HEP1,8.63
same,pIC50,NCI-H2228,8.14
same,pIC50,GOTO,8.64
same,pIC50,NCI-H1755,8.21
same,pIC50,NCI-H720,9.24
same,pIC50,S-117,8.31
same,pIC50,MKN-1,< 8.00
same,pIC50,SW1573,8.26
same,pIC50,ES7,9.41
same,pIC50,HL-60,8.45
same,pIC50,HCC1954,< 8.00
same,pIC50,BCPAP,9.02
same,pIC50,NCI-H1792,8.98
same,pIC50,HCT-116,8.74
same,pIC50,HOP-92,8.14
same,pIC50,A388,8.58
same,pIC50,NCI-H2122,8.74
same,pIC50,SW982,8.90
same,pIC50,TK-10,8.01
same,pIC50,NB6,< 8.00
same,pIC50,NCI-H1648,8.22
same,pIC50,ES5,9.04
same,pIC50,NCI-H1155,< 8.00
same,pIC50,T47D,8.37
same,pIC50,TE-11,9.25
same,pIC50,QIMR-WIL,8.36
same,pIC50,LU-139,< 8.00
same,pIC50,SH-4,8.49
same,pIC50,ESS-1,9.75
COc1cc([C@@H]2c3cc4c(cc3[C@@H](O[C@@H]3O[C@@H]5CO[C@@H](C)O[C@H]5[C@H](O)[C@H]3O)[C@H]3COC(=O)[C@H]23)OCO4)cc(OC)c1O [ETOPOSIDE],pIC50,KP-4; read-out: IC50,6.38
same,pIC50,SHP77,< 4.80
same,pIC50,HEL,5.41
same,pIC50,HMV-2 cell line,6.25
same,pIC50,HOS,6.32
same,pIC50,KYSE-270,6.60
same,pIC50,HCE-4,6.10
same,pIC50,NCI-H441,4.95
same,pIC50,SK-MEL-2,< 4.80
same,pIC50,KINGS-1,< 4.80
same,pIC50,Calu-3,6.30
same,pIC50,no-11,5.12
same,pIC50,NB12,5.97
same,pIC50,GR-ST,5.17
same,pIC50,GB-1,5.79
same,pIC50,NCI-H2052,4.94
same,pIC50,T-24,< 4.80
same,pIC50,SK-PN-DW,6.47
same,pIC50,CTB-1,5.77
same,pIC50,ACN,7.10
same,pIC50,SNU-5,5.10
same,pIC50,COLO-792,< 4.80
same,pIC50,MKN-7,< 4.80
same,pIC50,SK-HEP1,6.57
same,pIC50,NCI-H2228,5.58
same,pIC50,GOTO,5.20
same,pIC50,NCI-H1755,< 4.80
same,pIC50,NCI-H720,< 4.80
same,pIC50,S-117,< 4.80
same,pIC50,MKN-1,6.42
same,pIC50,SW1573,5.65
same,pIC50,ES7,6.12
same,pIC50,HL-60,5.64
same,pIC50,HCC1954,5.00
same,pIC50,BCPAP,6.13
same,pIC50,NCI-H1792,< 4.80
same,pIC50,HCT-116,6.00
same,pIC50,HOP-92,5.30
same,pIC50,A388,5.48
same,pIC50,NCI-H2122,5.27
same,pIC50,SW982,6.88
same,pIC50,TK-10,5.13
same,pIC50,NB6,< 4.80
same,pIC50,NCI-H1648,< 4.80
same,pIC50,ES5,< 4.80
same,pIC50,NCI-H1155,4.96
same,pIC50,T47D,4.93
same,pIC50,TE-11,5.13
same,pIC50,QIMR-WIL,6.81
same,pIC50,LU-139,5.40
same,pIC50,SH-4,5.50
same,pIC50,ESS-1,6.28
Cc1cnc(-c2cnc(NCCNc3ccc(C#N)cn3)nc2-c2ccc(Cl)cc2Cl)[nH]1 [LADUVIGLUSIB],pIC50,KP-4; read-out: IC50,< 5.59
same,pIC50,SHP77,< 5.59
same,pIC50,HEL,< 5.59
same,pIC50,HMV-2 cell line,< 5.59
same,pIC50,HOS,< 5.59
same,pIC50,KYSE-270,< 5.59
same,pIC50,HCE-4,< 5.59
same,pIC50,NCI-H441,< 5.59
same,pIC50,SK-MEL-2,< 5.59
same,pIC50,KINGS-1,< 5.59
same,pIC50,Calu-3,< 5.59
same,pIC50,no-11,< 5.59
same,pIC50,NB12,< 5.59
same,pIC50,GR-ST,< 5.59
same,pIC50,GB-1,< 5.59
same,pIC50,NCI-H2052,< 5.59
same,pIC50,T-24,< 5.59
same,pIC50,SK-PN-DW,< 5.59
same,pIC50,CTB-1,< 5.59
same,pIC50,ACN,< 5.59
same,pIC50,SNU-5,< 5.59
same,pIC50,COLO-792,< 5.59
same,pIC50,MKN-7,< 5.59
same,pIC50,SK-HEP1,< 5.59
same,pIC50,NCI-H2228,< 5.59
same,pIC50,GOTO,< 5.59
same,pIC50,NCI-H1755,< 5.59
same,pIC50,NCI-H720,< 5.59
same,pIC50,S-117,6.04
same,pIC50,MKN-1,< 5.59
same,pIC50,SW1573,< 5.59
same,pIC50,ES7,< 5.59
same,pIC50,HL-60,< 5.59
same,pIC50,HCC1954,< 5.59
same,pIC50,BCPAP,5.78
same,pIC50,NCI-H1792,< 5.59
same,pIC50,HCT-116,< 5.59
same,pIC50,HOP-92,< 5.59
same,pIC50,A388,< 5.59
same,pIC50,NCI-H2122,5.64
same,pIC50,SW982,6.67
same,pIC50,TK-10,< 5.59
same,pIC50,NB6,< 5.59
same,pIC50,NCI-H1648,< 5.59
same,pIC50,ES5,< 5.59
same,pIC50,NCI-H1155,< 5.59
same,pIC50,T47D,< 5.59
same,pIC50,TE-11,< 5.59
same,pIC50,QIMR-WIL,< 5.59
same,pIC50,LU-139,< 5.59
same,pIC50,SH-4,< 5.59
same,pIC50,ESS-1,< 5.59
